± gives the expanded uncertainty stated by the source.
Test: wn = mass fraction of the nth substance listed
Settings: 100 kPa, Liquid

O=C([O-])[C@@H]1CCCN1.[K+] [potassium L-prolinate] + O
mass density [kg/m3]
Settings	293.15 K	303.15 K	313.15 K	323.15 K
w1 = 0.01	1007.1 ± 2.3	1004.3 ± 2.4	1001.6 ± 2.5	997.9 ± 2.6
w1 = 0.04	1023.4 ± 2.3	1019.6 ± 2.4	1016.1 ± 2.5	1009.5 ± 2.7
w1 = 0.1	1047.2 ± 2.4	1042.8 ± 2.5	1037.9 ± 2.6	1026.7 ± 2.8

Reference: the NIST ThermoML archive (doi:10.1016/j.tca.2016.07.019)
